# From the NIST ThermoML archive (doi:10.1016/j.fluid.2004.02.021)
# Numbers after ± are expanded uncertainties.
# Conditions: Liquid
Structure (SMILES),vapor or sublimation pressure (283.15 K),vapor or sublimation pressure (288.15 K),vapor or sublimation pressure (293.15 K),vapor or sublimation pressure (298.15 K),vapor or sublimation pressure (303.15 K),vapor or sublimation pressure (308.15 K),vapor or sublimation pressure (313.15 K),vapor or sublimation pressure (318.15 K),vapor or sublimation pressure (323.15 K)
"ClC(Cl)C(Cl)Cl [1,1,2,2-tetrachloroethane]",0.263 ± 0.008 kPa,0.373 ± 0.01 kPa,0.521 ± 0.013 kPa,0.711 ± 0.017 kPa,0.98 ± 0.022 kPa,1.289 ± 0.028 kPa,1.701 ± 0.027 kPa,2.236 ± 0.029 kPa,2.86 ± 0.032 kPa
c1ccccc1 [benzene],6.078 ± 0.045 kPa,7.849 ± 0.052 kPa,10.03 ± 0.061 kPa,12.69 ± 0.072 kPa,15.93 ± 0.085 kPa,19.81 ± 0.1 kPa,24.4 ± 0.12 kPa,29.85 ± 0.14 kPa,36.24 ± 0.17 kPa
ClC(Cl)=C(Cl)Cl [tetrachloroethene],1.023 ± 0.023 kPa,1.4 ± 0.026 kPa,1.861 ± 0.028 kPa,2.462 ± 0.03 kPa,3.205 ± 0.033 kPa,4.117 ± 0.037 kPa,5.253 ± 0.041 kPa,6.621 ± 0.047 kPa,8.286 ± 0.054 kPa
